Values of other authors in patent publication US20050188697A1, “Fluorinated ketone and fluorinated ethers as working fluids for thermal energy conversion” (HONEYWELL CORPORATION, priority 2004, published 2005).

Tests used:
[1] = for Critical Temperature, Tc: Table 4 input
[2] = at 1 atmosphere

Row | Compound | Critical Temperature, Tc [1] | Heat Capacity (liquid, 25° C.) [1] | Flame Limits [2] | temperature at which toxic HCFC-133a is formed (thermal decomposition) | maximum temperature (thermal limitation) (to avoid formation of toxic HCFC-133a via thermal decomposition)
1 | COC(F)(F)C(F)(F)C(F)(F)C(F)(F)F [Methyl (perfluorobutyl) ether, 1-methoxynonafluorobutane] | 195.3 °C | 293.8 J/g-mol K | None |  | 
2 | O=C(C(F)(F)C(F)(F)F)C(F)(C(F)(F)F)C(F)(F)F [Perfluoroethyl perfluoroisopropyl ketone, dodecafluoro-2-methylpentan-3-one] | 168.7 °C | 348.5 J/g-mol K | None |  | 
3 | FC(F)CC(F)(F)F [HFC-245fa, 1,1,1,3,3-pentafluoropropane, reference compound] | 151.1 °C | 185.5 J/g-mol K | None |  | 
4 | FC(F)(F)C(Cl)Cl [HCFC-123, 1,1-dichloro-2,2,2-trifluoroethane, reference compound] | 183.6 °C | 160.3 J/g-mol K | None | below 300 ° F. | 121.0 °C
5 | COC(F)(F)C(F)(F)C(F)(F)F [Methyl (perfluoropropyl) ether, 1-methoxyheptafluoropropane] | 165.0 °C | 260.0 J/g-mol K | None |  | 
